{
  "source": "patent US20250195521A1",
  "about": "(Revolution Medicines, Inc., priority 2020, published 2025)",
  "key": {"[1]": {"biological_target": "NRAS Q61R binding to BRAF RBD (Homo sapiens (Human), UniProt P01111+P62937, Q61R)", "sequence (P01111 whole entry Q61R, the tested form may be a part)": "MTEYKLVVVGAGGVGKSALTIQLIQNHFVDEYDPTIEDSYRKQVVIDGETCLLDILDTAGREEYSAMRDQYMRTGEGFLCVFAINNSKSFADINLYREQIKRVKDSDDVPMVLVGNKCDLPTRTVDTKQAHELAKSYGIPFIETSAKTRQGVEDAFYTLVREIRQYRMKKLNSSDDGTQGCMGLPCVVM", "sequence (P62937 whole entry, the tested form may be a part)": "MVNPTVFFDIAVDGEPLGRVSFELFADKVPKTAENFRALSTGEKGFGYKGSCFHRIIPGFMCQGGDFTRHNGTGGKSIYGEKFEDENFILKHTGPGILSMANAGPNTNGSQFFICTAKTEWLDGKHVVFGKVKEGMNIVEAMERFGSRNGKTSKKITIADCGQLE", "experiment": "Ras-Raf disruption/FRET/MOA assay, NRAS Q61R", "type": "biochemical", "text": "(§1) Disruption of B-Raf Ras-binding Domain (BRAF^RBD) Interaction with K-Ras by Compounds of the Invention (also called a FRET assay or an MOA assay)\n(§2) Note—The following protocol describes a procedure for monitoring disruption of K-Ras G12C(GMP-PNP) binding to BRAF^RBD by a compound of the invention. This protocol may also be executed substituting other Ras proteins or nucleotides.\n(§3) The purpose of this biochemical assay was to measure the ability of test compounds to facilitate ternary complex formation between a nucleotide-loaded K-Ras isoform and Cyclophilin A; the resulting ternary complex disrupts binding to a BRAF^RBD construct, inhibiting K-Ras signaling through a RAF effector. Data is reported as IC50 values.\n(§4) In assay buffer containing 25 mM HEPES pH 7.3, 0.002% Tween20, 0.1% BSA, 100 mM NaCl and 5 mM MgCl2, tagless Cyclophilin A, His6-K-Ras-GMPPNP, and GST-BRAF^RBD were combined in a 384-well assay plate at final concentrations of 25 μM, 12.5 nM and 50 nM, respectively. Compound was present in plate wells as a 10-point 3-fold dilution series starting at a final concentration of 30 μM. After incubation at 25° C. for 3 hours, a mixture of Anti-His Eu—W1024 and anti-GST allophycocyanin was then added to assay sample wells at final concentrations of 10 nM and 50 nM, respectively, and the reaction incubated for an additional 1.5 hours. […] Compounds that facilitate disruption of a K-Ras: RAF complex were identified as those eliciting a decrease in the TR-FRET ratio relative to DMSO control wells."}, "[2]": {"biological_target": "K-Ras G12C(GMP-PNP) binding to BRAF RBD (Homo sapiens (Human), UniProt P01116+P62937, G12C)", "sequence (P01116 other isoform, or with tags, fused parts or gaps G12C)": "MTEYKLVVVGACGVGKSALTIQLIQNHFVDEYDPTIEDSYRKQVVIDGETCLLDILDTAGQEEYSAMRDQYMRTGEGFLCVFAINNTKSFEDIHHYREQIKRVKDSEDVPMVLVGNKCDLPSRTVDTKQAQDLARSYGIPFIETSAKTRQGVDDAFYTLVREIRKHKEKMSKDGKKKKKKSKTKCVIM", "sequence (P62937 whole entry)": "as the sequence (P62937 whole entry, the tested form may be a part) above", "experiment": "Disruption of BRAF RBD interaction with K-Ras (FRET / MOA assay), K-Ras G12C", "type": "biochemical", "conditions": "read-out: KRAS G12C FRET IC50", "how_it_was_run": "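TR-FRET readout: after 3 h compound incubation at 25 °C, anti-His Eu and anti-GST allophycocyanin (10 and 50 nM final) added for a further 1.5 h. Dilution series was 10-point, 3-fold, top 30 μM final. Ras–cyclophilin A ternary complex formation blocks the BRAF RBD interaction; IC50 derived from reduced FRET ratio relative to DMSO.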"}, "[3]": {"biological_target": "KRAS Q61H binding to BRAF RBD (Homo sapiens (Human), UniProt P01116+P62937, Q61H)", "sequence (P01116 other isoform, or with tags, fused parts or gaps Q61H)": "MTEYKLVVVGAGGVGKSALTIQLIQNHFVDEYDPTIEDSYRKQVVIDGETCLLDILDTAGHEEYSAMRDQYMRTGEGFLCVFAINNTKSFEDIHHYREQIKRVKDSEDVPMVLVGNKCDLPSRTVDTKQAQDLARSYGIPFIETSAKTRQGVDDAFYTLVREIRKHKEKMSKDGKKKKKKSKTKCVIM", "sequence (P62937 whole entry)": "as the sequence (P62937 whole entry, the tested form may be a part) above", "experiment": "Ras-Raf disruption/FRET/MOA assay, KRAS Q61H", "type": "biochemical", "text": "as §1, §2, §3, §4"}, "[4]": {"biological_target": "NRAS G12C binding to BRAF RBD (Homo sapiens (Human), UniProt P01111+P62937, G12C)", "sequence (P01111 whole entry G12C)": "as the sequence (P01111 whole entry Q61R, the tested form may be a part) above, with G12C, R61Q counted along it", "sequence (P62937 whole entry)": "as the sequence (P62937 whole entry, the tested form may be a part) above", "experiment": "Ras-Raf disruption/FRET/MOA assay, NRAS G12C", "type": "biochemical", "text": "as §2, §3\nas §4, with “Compound” for “In assay buffer containing 25 mM HEPES pH 7.3, 0.002% Tween20, 0.1% BSA, 100 mM NaCl and 5 mM MgCl2, tagless Cyclophilin A, His6-K-Ras-GMPPNP, and GST-BRAF^RBD were combined in a 384-well assay plate at final concentrations of 25 μM, 12.5 nM and 50 nM, respectively. Compound”"}, "[5]": {"test_system": "K-Ras G12C (NCI-H358 cells)", "experiment": "Potency assay: pERK in NCI-H358 cells", "type": "cell-based, human", "conditions": "Homo sapiens; NCI-H358 cells, 4 hours; read-out: pERK EC50 (H358 KRAS G12C)", "how_it_was_run": "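Cells plated the day before were exposed for 4 h at 37° C, 5% CO2 to a 10-point, 3-fold DMSO dilution series (10 mM top stock), in duplicate. Phospho-ERK was read by AlphaLISA SureFire Ultra or by In-Cell Western with DRAQ5 DNA stain, and IC50 came from a 4-parameter sigmoidal fit.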"}, "[6]": {"biological_target": "NRAS Q61K binding to BRAF RBD (Homo sapiens (Human), UniProt P01111+P62937, Q61K)", "sequence (P01111 whole entry Q61K)": "as the sequence (P01111 whole entry Q61R, the tested form may be a part) above, with R61K counted along it", "sequence (P62937 whole entry)": "as the sequence (P62937 whole entry, the tested form may be a part) above", "experiment": "Ras-Raf disruption/FRET/MOA assay, NRAS Q61K", "type": "biochemical", "text": "as §1, §2, §3, §4"}, "[7]": {"biological_target": "KRAS G13D binding to BRAF RBD (Homo sapiens (Human), UniProt P01116+P62937, G13D)", "sequence (P01116 other isoform, or with tags, fused parts or gaps G13D)": "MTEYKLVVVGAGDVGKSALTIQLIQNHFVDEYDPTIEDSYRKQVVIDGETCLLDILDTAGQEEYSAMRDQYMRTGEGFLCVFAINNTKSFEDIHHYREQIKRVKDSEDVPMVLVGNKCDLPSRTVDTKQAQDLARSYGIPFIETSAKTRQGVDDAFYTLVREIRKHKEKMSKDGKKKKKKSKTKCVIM", "sequence (P62937 whole entry)": "as the sequence (P62937 whole entry, the tested form may be a part) above", "experiment": "Ras-Raf disruption/FRET/MOA assay, KRAS G13D", "type": "biochemical", "how_it_was_run": "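First, test compounds in a 10-point 3-fold series (30 μM final top) were incubated for 3 hours at 25° C with nucleotide-loaded Ras, cyclophilin A and a BRAF RBD construct. Next, Eu anti-His and allophycocyanin anti-GST detection reagents were added for 1.5 hours. Finally, IC50s were derived from loss of TR-FRET signal against DMSO.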"}, "NCI-H358 (K-Ras G12C)": {"test_system": "NCI-H358 (K-Ras G12C)", "experiment": "CellTiter-Glo cell viability assay, NCI-H358", "type": "cell-based, human", "conditions": "Homo sapiens, NCI-H358, 120 h, 5-day treatment; read-out: H358 Cell Viability assay data (K-Ras G12C, IC50)", "how_it_was_run": "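Luminescent CellTiter-Glo read-out on day 5 after compound exposure; signal expressed as percent of mean DMSO control; four-parameter logistic fit gives the value.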"}, "[8]": {"biological_target": "NRAS WT binding to BRAF RBD (Homo sapiens (Human), UniProt P01111+P62937)", "sequence (P01111 whole entry)": "as the sequence (P01111 whole entry Q61R, the tested form may be a part) above, with R61Q counted along it", "sequence (P62937 whole entry)": "as the sequence (P62937 whole entry, the tested form may be a part) above", "experiment": "Ras-Raf disruption/FRET/MOA assay, NRAS WT", "type": "biochemical", "text": "as §1, §2, §3, §4"}},
  "data": [
    {"smiles": "C=CC(=O)C1CC[C@H](C(=O)N(C)[C@H](C(=O)N[C@H]2Cc3cccc(c3)-c3ccc4c(c3)c(c(-c3cccnc3[C@H](C)OC)n4CC)CC(C)(C)COC(=O)[C@@H]3CCCN(N3)C2=O)C(C)(C)F)C1", "note": "(stereo partly drawn) [Compound A693]", "values": [
      {"measurement": "IC50", "setting": "[1]", "value": "1000 to 10000", "unit": "nM"},
      {"measurement": "IC50", "setting": "[2]", "value": "100 to 1000", "unit": "nM"},
      {"measurement": "IC50", "setting": "[3]", "value": "1000 to 10000", "unit": "nM"},
      {"measurement": "IC50", "setting": "[4]", "value": "100 to 1000", "unit": "nM"},
      {"measurement": "EC50", "setting": "[5]", "value": "< 5000", "unit": "nM"},
      {"measurement": "IC50", "setting": "[6]", "value": "1000 to 10000", "unit": "nM"},
      {"measurement": "IC50", "setting": "[7]", "value": "1000 to 10000", "unit": "nM"},
      {"measurement": "IC50", "setting": "NCI-H358 (K-Ras G12C)", "value": "100 to 1000", "unit": "nM"},
      {"measurement": "IC50", "setting": "[8]", "value": "1000 to 10000", "unit": "nM"}
    ]},
    {"smiles": "CCn1c(-c2cccnc2[C@H](C)OC)c2c3cc(ccc31)-c1csc(n1)C[C@H](NC(=O)[C@H](C(C)C)N(C)C(=O)C1CCN(C(=O)/C=C/CN(C)C)C3(CC3)C1)C(=O)N1CCC[C@H](N1)C(=O)OCC(C)(C)C2", "note": "(stereo partly drawn) [Compound A701]", "values": [
      {"measurement": "IC50", "setting": "[1]", "value": "100 to 1000", "unit": "nM"},
      {"measurement": "IC50", "setting": "[2]", "value": "10 to 100", "unit": "nM"},
      {"measurement": "IC50", "setting": "[3]", "value": "10 to 100", "unit": "nM"},
      {"measurement": "IC50", "setting": "[4]", "value": "10 to 100", "unit": "nM"},
      {"measurement": "EC50", "setting": "[5]", "value": "< 5000", "unit": "nM"},
      {"measurement": "IC50", "setting": "[6]", "value": "10 to 100", "unit": "nM"},
      {"measurement": "IC50", "setting": "[7]", "value": "100 to 1000", "unit": "nM"},
      {"measurement": "IC50", "setting": "NCI-H358 (K-Ras G12C)", "value": "10 to 100", "unit": "nM"},
      {"measurement": "IC50", "setting": "[8]", "value": "100 to 1000", "unit": "nM"}
    ]},
    {"smiles": "CCn1c(-c2cccnc2[C@H](C)OC)c2c3cc(ccc31)-c1csc(n1)C[C@H](NC(=O)[C@H](C(C)C)N(C)C(=O)C1CCN(C(=O)/C=C/CN(C)C)C[C@@H]1C)C(=O)N1CCC[C@H](N1)C(=O)OCC(C)(C)C2", "note": "(stereo partly drawn) [Compound A709]", "values": [
      {"measurement": "IC50", "setting": "[1]", "value": "100 to 1000", "unit": "nM"},
      {"measurement": "IC50", "setting": "[2]", "value": "10 to 100", "unit": "nM"},
      {"measurement": "IC50", "setting": "[3]", "value": "10 to 100", "unit": "nM"},
      {"measurement": "IC50", "setting": "[4]", "value": "10 to 100", "unit": "nM"},
      {"measurement": "EC50", "setting": "[5]", "value": "< 5000", "unit": "nM"},
      {"measurement": "IC50", "setting": "[6]", "value": "10 to 100", "unit": "nM"},
      {"measurement": "IC50", "setting": "[7]", "value": "100 to 1000", "unit": "nM"},
      {"measurement": "IC50", "setting": "NCI-H358 (K-Ras G12C)", "value": "10 to 100", "unit": "nM"},
      {"measurement": "IC50", "setting": "[8]", "value": "10 to 100", "unit": "nM"}
    ]},
    {"smiles": "CCn1c(-c2cccnc2[C@H](C)OC)c2c3cc(ccc31)N1CCO[C@@H](C[C@H](NC(=O)[C@H](C(C)C)N(C)C(=O)[C@@]3(F)CCN(C(=O)C#CC(C)(C)N4CCC4)C3)C(=O)N3CCC[C@H](N3)C(=O)OCC(C)(C)C2)C1", "note": "[Compound A726]", "values": [
      {"measurement": "IC50", "setting": "[1]", "value": "> 10000", "unit": "nM"},
      {"measurement": "IC50", "setting": "[2]", "value": "< 10", "unit": "nM"},
      {"measurement": "IC50", "setting": "[3]", "value": "1000 to 10000", "unit": "nM"},
      {"measurement": "IC50", "setting": "[4]", "value": "10 to 100", "unit": "nM"},
      {"measurement": "EC50", "setting": "[5]", "value": "< 5000", "unit": "nM"},
      {"measurement": "IC50", "setting": "[6]", "value": "> 10000", "unit": "nM"},
      {"measurement": "IC50", "setting": "[7]", "value": "1000 to 10000", "unit": "nM"},
      {"measurement": "IC50", "setting": "NCI-H358 (K-Ras G12C)", "value": "< 10", "unit": "nM"},
      {"measurement": "IC50", "setting": "[8]", "value": "1000 to 10000", "unit": "nM"}
    ]}
  ]
}
